Data set [1] has as its system HEK-293 cells. The experiment in a line: HEK-293 cytotoxicity assay (MTS). As to conditions: for concentration with significant (p < 0.0001) decrease in HEK-293 cell viability: 72 h of incubation; for concentration of observed antiproliferative effects: summary of HepG2 and HEK-293 assays. Type of data set: cell-based, human. The procedure: Subsequently, a similar study was performed with the HEK-293 cell line.
Hepatotoxicity and cytotoxicity were estimated according to previously described protocols[62] using the hepatoma HepG2 (ATCC HB-8065) and human embryonic kidney HEK-293 (ATCC CRL1573) cell lines, respectively. In brief, cells were seeded in 96-well plates at a density of 0.7 × 10^4 and cultured at 37 °C in an atmosphere containing 5% CO2. Next, the compounds were added and investigated in quadruplicate at concentrations ranging from 0.1 to 100 μM for 72 h. The antiproliferative drug DX was used as the reference. The CellTiter 96 AQueous nonradioactive cell proliferation assay (MTS) purchased from Promega (Madison, WI, USA) was used for the determination of cell viability. The absorbance at 492 nm was measured using an EnSpire microplate reader (PerkinElmer, Waltham, MA, USA).

Data set [2] addresses T1, mGAT3 (Mus musculus, UniProt P31649).
T1 construct: expressed in transfected cells; host or cells: HEK-293
T1 sequence (P31649 1-602): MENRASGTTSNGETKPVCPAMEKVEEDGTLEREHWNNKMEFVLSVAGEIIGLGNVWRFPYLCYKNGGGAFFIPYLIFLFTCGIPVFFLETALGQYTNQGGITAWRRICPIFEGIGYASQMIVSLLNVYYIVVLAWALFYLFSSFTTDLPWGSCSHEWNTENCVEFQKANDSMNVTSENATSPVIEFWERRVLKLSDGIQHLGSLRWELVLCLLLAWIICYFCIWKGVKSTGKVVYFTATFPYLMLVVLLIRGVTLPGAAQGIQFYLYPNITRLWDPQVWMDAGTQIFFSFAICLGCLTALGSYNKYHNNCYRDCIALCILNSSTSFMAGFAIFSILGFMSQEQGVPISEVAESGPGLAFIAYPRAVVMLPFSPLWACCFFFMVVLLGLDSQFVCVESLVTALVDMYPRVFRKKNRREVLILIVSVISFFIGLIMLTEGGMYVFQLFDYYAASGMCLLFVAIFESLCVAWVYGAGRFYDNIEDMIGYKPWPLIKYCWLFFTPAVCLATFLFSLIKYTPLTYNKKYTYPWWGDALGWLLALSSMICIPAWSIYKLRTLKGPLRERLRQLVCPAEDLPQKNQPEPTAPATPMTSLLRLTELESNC
The data set can be described thus: [3H]GABA uptake assay in HEK-293 cells stably expressing mGAT3. In kind it is cell-based. The conditions noted are these: [3H]GABA uptake; read-out: pIC50 ± SEM mGAT3 (converted).

Data set [3] concerns the target T2, mGAT1 (Mus musculus, UniProt P31648).
T2 construct: expressed in transfected cells; host or cells: HEK-293
The experiment in a line: [3H]GABA uptake assay in HEK-293 cells stably expressing mGAT1. In kind it is cell-based. As to conditions: for IC50: [3H]GABA uptake, read-out: pIC50 ± SEM mGAT1 (converted).

Data set [4] relates to STZ-treated mice. The data set can be described thus: diabetic STZ-induced peripheral neuropathy, heat hyperalgesia (hot plate test). The conditions noted are these: i.p. In kind it is in vivo, mouse. The procedure: (§1) Before the in vivo tests, the test compounds were suspended in 1% Tween 80 (Baxter, Poland). The compounds were then administered intraperitoneally. […] The test compounds were administered only once daily on days 1 and 7 of oxaliplatin- or paclitaxel-induced neuropathy. In STZ-treated mice, test compounds were administered 21 days after STZ injection. Control mice used in oxaliplatin and paclitaxel NP models were injected with an appropriate amount of vehicle (0.9% saline). Oxaliplatin was purchased from Activate Scientific GmbH (Germany). Paclitaxel and STZ were purchased from Sigma-Aldrich (Poland).
Doses of both paclitaxel and STZ used for the induction of neuropathy were selected based on our previous research.[66],[67] To induce neuropathy, paclitaxel was used at a dose of 18 mg/kg. It was prepared by dissolving in ethanol (100% (v/v); Polskie Odczynniki Chemiczne, Gliwice, Poland) at 10% of the final desired volume and vortexed for 2 min. […] Blood glucose level was measured 1 day before (referred to as “day 0”) and repeatedly 1, 2, and 3 weeks after STZ injection using a blood glucose monitoring system (Accu-Chek Active, Roche, France). […]
Thermal (heat) nociceptive threshold was assessed in the hot plate test as previously described.[67] […] The time until the animal licked its hind paws or jumped was recorded by means of a stop-watch. […]

For data set [5], the system named is STZ-treated mice. The data set can be described thus: diabetic STZ-induced peripheral neuropathy, tactile allodynia (von Frey test). The conditions noted are these: 21 days after STZ, i.p., doses 10 and 30 mg/kg. In kind it is in vivo, mouse. The procedure:
as §1
Doses of both paclitaxel and STZ used for the induction of neuropathy were selected based on our previous research.[66],[67] To induce neuropathy, paclitaxel was used at a dose of 18 mg/kg. […] Blood glucose level was measured 1 day before (referred to as “day 0”) and repeatedly 1, 2, and 3 weeks after STZ injection using a blood glucose monitoring system (Accu-Chek Active, Roche, France). […]
The ability of the test compounds to attenuate tactile allodynia caused by oxaliplatin, paclitaxel, and STZ was assessed using the von Frey test. For this purpose, 3 h after oxaliplatin or paclitaxel and 21 days after STZ injection, the predrug paw withdrawal threshold was measured for each mouse. […]

Data set [6] deals with paclitaxel-treated mice. The experiment in a line: paclitaxel-induced peripheral neuropathy, tactile allodynia (von Frey test). In kind it is in vivo, mouse. The procedure:
as §1
Doses of both paclitaxel and STZ used for the induction of neuropathy were selected based on our previous research.[66],[67] To induce neuropathy, paclitaxel was used at a dose of 18 mg/kg. It was prepared by dissolving in ethanol (100% (v/v); Polskie Odczynniki Chemiczne, Gliwice, Poland) at 10% of the final desired volume and vortexed for 2 min. An equal volume of Cremophor EL (10% of the final volume) was then added, and the mixture was vortexed for the next 10 min. Prior to injection, ice-cold physiological saline (80% of the final volume) was added to make up a final volume and the solution was maintained on ice during dosing.[66] To induce type I diabetes, mice were intraperitoneally injected with STZ (a single injection of STZ, 200 mg/kg) dissolved in 0.1 N citrate buffer. Age-matched control mice received an equal volume of citrate buffer. Blood glucose level was measured 1 day before (referred to as “day 0”) and repeatedly 1, 2, and 3 weeks after STZ injection using a blood glucose monitoring system (Accu-Chek Active, Roche, France). Blood samples for measurement of glucose concentration were obtained from the tail vein of the mice. The animals were considered as diabetic when their blood glucose concentration exceeded 300 mg/dL,[68] and only these mice (diabetic mice) were used in subsequent pain tests.[67]
The ability of the test compounds to attenuate tactile allodynia caused by oxaliplatin, paclitaxel, and STZ was assessed using the von Frey test. For this purpose, 3 h after oxaliplatin or paclitaxel and 21 days after STZ injection, the predrug paw withdrawal threshold was measured for each mouse. Then, the test compounds were administered, and 1 h later, the postdrug paw withdrawal threshold was collected for each animal. This part of the experiment aimed to establish the effect of treatment on early phase (acute) pain hypersensitivity induced by cytotoxic drugs. Additionally, in the oxaliplatin model and the paclitaxel model, to assess the effect of test compounds on late phase tactile allodynia, 7 days later, measurements of the predrug and postdrug paw withdrawal thresholds were made in a similar manner to the measurements performed during early phase neuropathy. At this stage of the experiment, there was no additional oxaliplatin/paclitaxel administration.
An electronic von Frey unit (Bioseb, France) was used to assess the mechanical nociceptive threshold (tactile allodynia) in mice. This device has a single flexible filament that applies increasing force (from 0 to 10 g) against the plantar surface of the hind paw of each mouse. In the von Frey test, the paw withdrawal response of the animals automatically turns off the stimulus, and the mechanical pressure that evokes this response is recorded. On the day of the experiment, the mice were placed individually in test compartments with a wire mesh bottom and left there for 1 h of habituation. Subsequently, to obtain baseline values, each mouse was tested 3 times alternately in each hind paw. Then, the test compounds were administered, and 1 h later, 3 additional measurements were taken and averaged to obtain the mean postdrug values for each mouse.[69]

The mark [7] stands for this setting: day 7 after paclitaxel injection, 30 mg/kg i.p., 30 mg/kg.
The mark [8] stands for this setting: day 7 after paclitaxel injection, lower dose (10 mg/kg) i.p.
Where [9] appears, read: day of paclitaxel administration, 10 and 30 mg/kg i.p.

The results in this text go back to paper PMC8397297 (ACS Chemical Neuroscience, 2021).

Entries after “also recorded” stand apart in the source; their conditions may differ.

Consider `Cc1ccc(CNC(=O)[C@@H](C[C@@H](C)O)N(C)CCC=C2c3ccccc3CCc3ccccc32)cc1` (relative stereo) [Compound 2RS,4RS-39c, 2-((3-(10,11-Dihydro-5H-dibenzo[a,d][7]annulen-5-ylidene)propyl)(methyl)amino)-4-hydroxy-N-(4-methylbenzyl)pentanamide], for which, in data set [1], the “concentration with significant (p < 0.0001) decrease in HEK-293 cell viability” value stood at 25 µM and the “concentration of observed antiproliferative effects” value was found to be 25 µM. Moreover, the IC50 in data set [2] was 6.61 µM. For the same molecule, the “remaining [3H]GABA uptake mGAT1” value in data set [3] (in the presence of 100 μM inhibitor) is listed as 100 μM: 52%.
Consider `CN(CCON=C(c1ccccc1)c1ccccc1)C(CCN)C(=O)NCc1ccccc1Cl` (stereo not shown) [Compound 50a, 4-Amino-N-[(2-chlorophenyl)methyl]-2-[(2-{[(diphenylmethylidene)amino]oxy}ethyl)(methyl)amino]butanamide], for which the “effect on heat nociceptive threshold, hot plate test” value in data set [4] is “neither 50a nor 56a was effective”. Besides, in data set [5], the “effect on mechanical nociceptive threshold (tactile allodynia), von Frey test” value was “effective only at the dose of 30 mg/kg”. The “safety profile in HEK-293 cells” value in data set [1] (72 h, compared with HepG2) was “comparable safety profile in HEK-293 and HepG2 cells”. The “concentration of observed antiproliferative effects” value in data set [1] turned out to be 1 µM. The IC50 in data set [2] is 8.51 µM; in data set [3] it was 20 µM. Further, the “effect on mechanical nociceptive threshold, von Frey test” value is “elevated mechanical nociceptive threshold; also recorded: able to reduce tactile allodynia” in data set [6] (setting [7]); “not effective” in data set [6] (setting [8]); “neither 50a nor 56a at doses 10 and 30 mg/kg was able to elevate the mechanical nociceptive threshold” in data set [6] (setting [9]).
As to `CN(CCC=C1c2ccccc2CCc2ccccc21)C(CO)C(=O)NCc1ccccc1` (stereo not shown) [Compound 56a, N-Benzyl-2-((3-(10,11-dihydro-5H-dibenzo[a,d][7]annulen-5-ylidene)propyl)(methyl)amino)-3-hydroxypropanamide], the “effect on heat nociceptive threshold, hot plate test” value in data set [4] is “neither 50a nor 56a was effective”. The “effect on mechanical nociceptive threshold (tactile allodynia), von Frey test” value in data set [5] was “effective only at the dose of 30 mg/kg”. For the same molecule, the “concentration with significant (p < 0.0001) decrease in HEK-293 cell viability” value in data set [1] was determined as 25 µM. Also, in data set [1], the “concentration of observed antiproliferative effects” value was determined as 25 µM. Also, the IC50 in data set [2] is 22.9 µM; in data set [3], 21.4 µM. In addition, the “effect on mechanical nociceptive threshold, von Frey test” value in data set [6] (setting [7]) was “elevated mechanical nociceptive threshold; also recorded: able to reduce tactile allodynia”; in data set [6] (setting [8]) it was “not effective”; in data set [6] (setting [9]), “neither 50a nor 56a at doses 10 and 30 mg/kg was able to elevate the mechanical nociceptive threshold”.
